Patent US4376789A, “Surfactants which are polyhydric alcohol partial esters of adducts of maleic anhydride with an unsaturated carboxylic acid” (Grillo-Werke AG, priority 1980, dated 1983)

System: eye
Test: Eye irritation test according to Draize
Assay type: in vivo
Source text: The good compatibility of the partial esters according to the invention with skin and mucous membranes is evident from the following investigations. In Table 1, the results of an eye irritation test, according to Draize, for the products of the invention are compared with those of anionic surfactants known to be acceptable dermatologically. It should be noted that substantially higher concentrations of the active products of the invention, than of the prior art compounds, were used in the test.
The Draize test was performed according to the provisions of the Appraisal of the Safety of Chemicals in Food, Drugs and Cosmetics, published by the United States Food and Drug Administration in 1959. According to this method, appraisal points are assigned as follows: […]

| Compound | Evaluation points according to Draize score (concentration % active substance: 100 (Examples 1, 3, 4), 65 (Example 2), 50 (Example 5, Na lauryl ether sulfate, undecylic acid semi-ester Na salt), 40 (tallow coco fat alcohol sulfate Na salt), 35 (ammonium lauryl sulfate)) [Points] | Evaluation points according to Draize score (in vivo) [Points] | Evaluation range (Draize) (in vivo) |
| --- | --- | --- | --- |
| CCCCCCCCCCCCOS(=O)(=O)O.N [Ammonium lauryl sulfate] | 12.9 |  |  |
| CCCCCCCCCCC(=O)NCCOC(=O)CC(C(=O)[O-])S(=O)(=O)O.CCCCCCCCCCC(=O)NCCOC(=O)CC(C(=O)[O-])S(=O)(=O)O.[Na+].[Na+] (stereo not shown) [Na salt of undecylic acid monethanolamide sulfo succinic acid semi-ester] |  | 19.6 | Slightly irritant |
| Na lauryl ether sulfate |  | 14.2 | Slightly irritant |
| Tallow coco fat alcohol sulfate Na salt |  | 24.3 | Slightly irritant |
